Patent US11147801B2, “Methods of use for trisubstituted benzotriazole derivatives as dihydroorotate oxygenase inhibitors” (Aurigene Discovery Technologies Limited, priority 2017, dated 2021)

Tests used:
DLBCL_1 tumor = experiment: Patient-derived DLBCL xenograft model DLBCL_1 (triple hit); type: in vivo, CB17 SCID mice; details: 100 mg/kg BID PO
Description: (§1) A screen was next performed using a small number of mice/group to assess efficacy of Compound 1 in AML and DLBCL patient-derived xenograft models. Tumor-bearing mice (n=3/group) were treated with vehicle or Compound 1 at 100 mg/kg BID PO.

DHODH = DHODH (Homo sapiens (Human), UniProt Q02127); experiment: DHODH activity assay (coupled enzyme assay, DCIP reduction); type: biochemical; details: read-out: DHODH inhibition activity, IC50 group
Description: The DHODH activity assay is a coupled enzyme assay in which oxidation of DHO and subsequent reduction of ubiquinone are stoichiometrically equivalent to the reduction of DCIP ([…]). The reduction of DCIP is accompanied by a loss of absorbance at 610 nm.
Buffer Preparation: 50 mM tris HCl, 150 mM KCl, and pH 8.0, 0.8% triton.
L-Dihydroorotic acid stock solution of 20 mM in buffer.
2, 6-Dichloroindophenol Sodium salt hydrate stock solution of 20 mM in buffer.
Decylubiquinone stock solution of 20 mM in buffer.
5 μL of Dimethyl sulfoxide or a compound of formula (I) in DMSO solution was added to the wells of a 96 well plate. Compounds of formula (I) were measured at 10 μM.
Protein along with buffer was added, so that the total volume including the DMSO was 87 μL. Compound and protein were incubated for half an hour at room temperature after mixing. 5 μL of 20 mM solution of L-Dihydroorotic acid, 5 μL of 2 mM solution of Decylubiquinone and 3 μL of 2 mM solution of 2, 6-Dichloroindophenol sodium salt hydrate were added to the above solution (total assay volume 100 μL). The mixture was stirred for 2 min and absorbance was recorded at every 10 min at 610 nanometers.
Percent inhibition is calculated as follows: […]
A 2 mM DMSO stock solution of the selected trisubstituted benzoimidazole and benzotriazole derivatives of formula (I) of the present invention to be examined was prepared. Subsequent ⅓rd dilutions were made.
5 μL of each stock of compound of formula (I) was used for each 100 μL assay. Therefore, 5 μL of the 2 mM stock provided 100 μL of 100 μM solution of compound of formula (I), when made up with buffer, protein and substrate. See also: Ulrich et al. (2001) Eur. J. Biochem.268, 1861-1868.

KYSE510 = experiment: Tumor cell line panel screen, 72 hrs; type: cell-based; details: Homo sapiens, KYSE-510, KYSE510, esophageal squamous cell carcinoma
Description: (§2) A tumor cell line panel screen aimed at identifying tumor cell subsets that were particularly sensitive to inhibition of DHODH with Compound 1 was performed. Compound 1 is represented by the following structural formula: […]
(§3) These cell lines were treated with Compound 1 for a total of 72 hrs.
(§4) Table 1 is a list of some of the sensitive cell lines to Compound 1 along with GI50 values and max growth response. A maximum inhibition of 100 represents complete growth inhibition; a max inhibition value>100 represents cell killing.

MINO = experiment: Tumor cell line panel screen, 72 hrs; type: cell-based; details: Homo sapiens, mantle cell lymphoma
Description: as §2, §3, §4

SUDHL5 = experiment: Tumor cell line panel screen, 72 hrs; type: cell-based; details: Homo sapiens, SU-DHL-5, SUDHL5, diffuse large B cell lymphoma
Description: as §2, §3, §4

MOLM13 = experiment: Tumor cell line panel screen, 72 hrs; type: cell-based; details: Homo sapiens, MOLM-13, MOLM13, acute myeloid leukemia
Description: as §2, §3, §4

MV411 = experiment: Tumor cell line panel screen, 72 hrs; type: cell-based; details: Homo sapiens, MV4-11, MV411, child acute myeloid leukemia
Description: as §2, §3, §4

JVM13 = experiment: Tumor cell line panel screen, 72 hrs; type: cell-based; details: Homo sapiens, JVM13, B-prolymphocytic leukemia
Description: as §2, §3, §4

SUDHL1 = experiment: Tumor cell line panel screen, 72 hrs; type: cell-based; details: Homo sapiens, SU-DHL-1, SUDHL1, anaplastic large cell lymphoma
Description: as §2, §3, §4

DU4475 = experiment: Tumor cell line panel screen, 72 hrs; type: cell-based; details: Homo sapiens, DU-4475, DU4475, triple negative breast cancer
Description: as §2, §3, §4

SUM159PT = experiment: Tumor cell line panel screen, 72 hrs; type: cell-based; details: Homo sapiens, SUM-159-PT, triple negative breast cancer
Description: as §2, §3, §4

SR786 = experiment: Tumor cell line panel screen, 72 hrs; type: cell-based; details: Homo sapiens, SR-786, SR786, anaplastic large cell lymphoma
Description: as §2, §3, §4

RL = experiment: Tumor cell line panel screen, 72 hrs; type: cell-based; details: Homo sapiens, non-Hodgkin's lymphoma
Description: as §2, §3, §4

DU145 = experiment: Tumor cell line panel screen, 72 hrs; type: cell-based; details: Homo sapiens, DU-145, DU145, prostate cancer
Description: as §2, §3, §4

OCILY8 = experiment: Tumor cell line panel screen, 72 hrs; type: cell-based; details: Homo sapiens, OCI-Ly8, OCILY8, diffuse large B cell lymphoma
Description: as §2, §3, §4

JYSE150 = experiment: Tumor cell line panel screen, 72 hrs; type: cell-based; details: Homo sapiens, JYSE150, esophageal squamous cell carcinoma
Description: as §2, §3, §4

CJM = experiment: Tumor cell line panel screen, 72 hrs; type: cell-based; details: Homo sapiens, melanoma
Description: as §2, §3, §4

AML_5 tumor = experiment: Patient-derived AML xenograft model AML_5; type: in vivo, CB17 SCID mice; details: AML 5 patient-derived xenograft, 100 mg/kg BID PO
Description: as §1

Kasumi-3 = experiment: Heme line growth assay (Cell-Titer Glo), 4-day and extended 7-day; type: cell-based, human
Description: (§5) A follow-up screen was performed on an expanded panel of cell lines of heme lineage in a 4-day growth assay. Growth was assessed by Cell-Titer Glo measurements on day 0 and day 4.
(§6) Compound 1, of which diffuse large B cell lymphoma (DLBCL) lines were particularly sensitive (8/11 or 73%). A subset of the heme lines that were of intermediate sensitivity (defined as >50% and <75% growth rate inhibition) or insensitive (defined as <50% growth rate inhibition) to compound 1 in this follow-up screen were subjected to extended growth assays to evaluate if increased treatment time modulated their sensitivity profile. Specifically, these heme lines were pretreated with Compound 1 for three days at the indicated concentrations and then re-plated for a standard 4-day growth assay in fresh media/drug.

GDM-1 = experiment: as above; type: cell-based, human
Description: as §5, §6

SKNO-1 = experiment: as above; type: cell-based, human
Description: as §5, §6

Kasumi-6 = experiment: as above; type: cell-based, human
Description: as §5, §6

DHODH, sequence (Q02127 whole entry): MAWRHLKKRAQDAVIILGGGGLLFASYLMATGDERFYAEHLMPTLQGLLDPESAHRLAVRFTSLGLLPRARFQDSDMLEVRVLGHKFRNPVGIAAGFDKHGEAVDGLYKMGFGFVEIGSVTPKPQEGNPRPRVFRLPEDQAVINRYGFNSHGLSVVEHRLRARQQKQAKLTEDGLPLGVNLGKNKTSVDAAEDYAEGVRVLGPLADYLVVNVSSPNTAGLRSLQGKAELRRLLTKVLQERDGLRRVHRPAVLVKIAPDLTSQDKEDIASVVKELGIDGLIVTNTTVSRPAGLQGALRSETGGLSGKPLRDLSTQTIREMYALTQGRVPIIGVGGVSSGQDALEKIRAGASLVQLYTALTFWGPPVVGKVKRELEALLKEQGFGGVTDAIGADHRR

Q: With `Cc1ccccc1-c1ccc(-c2cc(C(=O)O)c3c(c2)nnn3C)cc1` [Compound 1, 1-methyl-5-(2′-methyl-[1,1′-biphenyl]-4-yl)-1H-benzo[d][1,2,3]triazole-7-carboxylic Acid] as the molecule, how does the TGI (DLBCL_1 tumor) read?
A: The TGI was greater than 60%.

Q: And the IC50 (DHODH)?
A: Its IC50 is less than 100 nM.

Q: What about the GI50 (KYSE510) of the same molecule?
A: Its GI50 is 130 nM.

Q: What about the GI50 (MINO) of the same molecule?
A: The GI50 was 30 nM.

Q: What about the GI50 (SUDHL5) of the same molecule?
A: The GI50 was 20 nM.

Q: And the GI50 (MOLM13)?
A: The GI50 was 60 nM.

Q: And the GI50 (MV411)?
A: Its GI50 is 270 nM.

Q: What about the GI50 (JVM13) of the same molecule?
A: The GI50 was 20 nM.

Q: And the GI50 (SUDHL1)?
A: The GI50 was 40 nM.

Q: What about the GI50 (DU4475) of the same molecule?
A: Its GI50 is 100 nM.

Q: And the GI50 (SUM159PT)?
A: The GI50 was 140 nM.

Q: And the GI50 (SR786)?
A: The GI50 was 50 nM.

Q: What about the GI50 (RL) of the same molecule?
A: The GI50 was 80 nM.

Q: What about the GI50 (DU145) of the same molecule?
A: The GI50 was 480 nM.

Q: And the GI50 (OCILY8)?
A: The GI50 was 20 nM.

Q: And the GI50 (JYSE150)?
A: The GI50 was 100 nM.

Q: And the GI50 (CJM)?
A: The GI50 was 620 nM.

Q: What about the TGI (AML_5 tumor) of the same molecule?
A: Its TGI is greater than 60%.

Q: And the “Sensitivity 7-day” value (Kasumi-3; Kasumi-3, 3 days pretreatment then 4-day growth assay)?
A: The value was “* (insensitive)”.

Q: What about the “Sensitivity 4-day” value (Kasumi-3; Kasumi-3, acute myeloid leukemia, 4-day growth assay) of the same molecule?
A: The value was “* (insensitive)”.

Q: What about the “Sensitivity 7-day” value (GDM-1; GDM-1, 3 days pretreatment then 4-day growth assay) of the same molecule?
A: The value was “** (intermediate)”.

Q: What about the “Sensitivity 4-day” value (GDM-1; GDM-1, acute myeloid leukemia, 4-day growth assay) of the same molecule?
A: Its value is “* (insensitive)”.

Q: And the “Sensitivity 7-day” value (SKNO-1; SKNO-1, 3 days pretreatment then 4-day growth assay)?
A: Its value is “** (intermediate)”.

Q: And the “Sensitivity 4-day” value (SKNO-1; SKNO-1, acute myeloid leukemia, 4-day growth assay)?
A: The value was “* (insensitive)”.

Q: What about the “Sensitivity 7-day” value (Kasumi-6; Kasumi-6, 3 days pretreatment then 4-day growth assay) of the same molecule?
A: The value was “* (insensitive)”.

Q: What about the “Sensitivity 4-day” value (Kasumi-6; Kasumi-6, acute myeloid leukemia, 4-day growth assay) of the same molecule?
A: The value was “* (insensitive)”.
